In patent publication US10966969B2, “Therapeutic agent for liver diseases” (APTABIO THERAPEUTICS INC., priority 2017, dated 2021):

Key:
[1] = test system: fatty liver model animal induced by MCD (methionine/choline deficient) diet; assay: Test using fatty liver model animal induced by MCD (methionine/choline deficient) diet; format: in vivo, Sprague Dawley (SD) rats; details: MCD diet rats, daily single dose of 60 mg/kg, compared to the vehicle group
Procedure: As subject animals, 6-week-old male Sprague Dawley (SD) rats were purchased. All rats were kept under standard conditions. When the rats became 12 weeks old after being bred for about 6 weeks, test substances were administered to the rats. Test groups were set based on ALT level in blood collected at 5 weeks. For 5 weeks after the rats became 12 weeks old, test substances were separately administered to a vehicle administration group and a 3-phenyl-4-n-propyl-1-(pyridin-2-yl)-1H-pyrazol-5-ol hydrochloride administration group. A normal control group was used as a negative control. Blood was collected one day before the start of the experiment (from the jugular vein), and blood samples were collected on the 3 weeks, 5 weeks, 7 weeks, 9 weeks and on the day of the autopsy (24 hours after the fasting, total six times). In addition, plasma of each blood sample collected on the 5 weeks, 7 weeks, 9 weeks and on the day of the autopsy were analyzed. After completion of the test, the animals were anesthetized, liver tissues were taken out from respective animals and blood for inspection was collected. The liver tissues were weighed and imaged. The liver tissues were immobilized in 10% buffered neutral formalin. […] In addition to H&E staining, Oil red-O staining was conducted in order to observe lipids induced by formation of fatty liver, levels of produced lipids were measured and an effect of drug administration on reduction of lipids was predicted. […] The serum of the upper layer was taken and the level of alanine transaminase (ALT) was measured using an automatic blood biochemical analyzer (AU480, Beckman 30-18 Coulter, USA) and the results were analyzed. A ratio of liver weight to body weight was measured and the amount of triglyceride in liver tissues was measured to expect effects of drug administration on reduction of relative liver weight and triglyceride. […] Results are analyzed.

[2] = test system: fatty liver model animal induced by high fat diet; assay: Test using fatty liver model animal induced by high fat diet; format: in vivo; details: high fat diet rats, daily single dose of 60 mg/kg, compared to the vehicle group and the obeticholic acid group
Procedure: As subject animals, 6-week-old rats were purchased. All rats were kept under standard conditions. When the rats became 12 weeks old after being bred for about 6 weeks, test substances were administered to the rats. Test groups were set based on ALT level in blood collected at 5 weeks. For 5 weeks after the rats reached 12 weeks old, test substances were separately administered to a vehicle administration group, an obeticholic acid administration group as a positive control group, and a 3-phenyl-4-normalpropyl-1-(pyridin-2-yl)-1H-pyrazol-5-ol hydrochloride administration group. Blood was collected one day before the start of the experiment (from jugular vein), and blood samples were collected on the 5 weeks, 8 weeks and on the day of the autopsy (24 hours after the fasting, total 4 times). In addition, plasma of each blood sample collected on the 5th week, 8th week and the day of the autopsy were analyzed. After completion of the test, the animals were anesthetized, liver tissues were taken out from respective animals and blood for inspection was collected. The liver tissues were weighed and imaged. The liver tissues were immobilized in 10% buffered neutral formalin. The immobilized tissues were cut to a predetermined thickness, subjected to a general tissue treatment process, embedded in paraffin and produced into tissue sections with a size of 4 to 5 μm, and the tissue sections were subjected to Hematoxylin & Eosin (H&E stain) as a general staining method and were histopatho-logically observed. In addition to H&E staining, Oil red-o staining was conducted in order to observe lipids induced by formation of fatty liver, levels of produced lipids were measured and an effect of drug administration on reduction of lipids was predicted. The liver tissues were stained with an Oil red o working solution, to evaluate levels of produced lipids. Blood was collected and centrifuged at 3000 rpm at 4° C. for 10 min. The serum of the upper layer was taken and the levels of alkaline phosphate (ALP), aspartate transminase (AST) and alanine transaminase (ALT) were measured using an automatic blood biochemical analyzer (AU480, Beckman 30-18 Coulter, USA) and the results were analyzed. A ratio of liver weight to body weight was measured and the amount of triglyceride in liver tissues was measured to expect effects of drug administration on reduction of relative liver weight and triglyceride. The liver tissues were ground with a homogenizer, chloroform and methanol (2:1) were added thereto, the resulting mixture was centrifuged at 3,000 rpm and at 4° C. for 10 minutes and the organic solvent layer containing lipids was separated. The organic solvent in the separated lipid layer was removed in the dryer at 50° C. for 12 hours. […]

[3] = test system: fatty liver model animal induced by diabetic db/db mice; assay: Test using fatty liver model animal induced by diabetic db/db mice; format: in vivo, diabetic db/db mice (C57BLKS/J-leprdb/leprdb); details: daily single dose of 60 mg/kg
Procedure: As subject animals, 6-week-old male diabetic db/db mice (C57BLKS/J-leprdb/leprdb) were purchased from Jackson Laboratory (Bar Harbor, Me., USA). The mice were kept under standard conditions. When the mice became 8 weeks old after being bred for about 2 weeks, test substances were administered to the mice. For 12 weeks after the mice became 8 weeks old, test substances were separately administered to a vehicle administration group and a 3-phenyl-4-normalpropyl-1-(pyridin-2-yl)-1H-pyrazol-5-ol hydrochloride administration group. A normal control group was used as a negative control. After completion of the test, the animals were anesthetized, liver tissues were taken out from respective animals and blood for inspection was collected. The liver tissues were weighed and imaged. The liver tissues were immobilized in 10% buffered neutral formalin. The immobilized tissues were cut to a predetermined thickness, subjected to a general tissue treatment process, embedded in paraffin and produced into tissue sections with a size of 4 to 5 μm, and the tissue sections were subjected to Hematoxylin & Eosin (H&E stain) as a general staining method and were histopatho-logically observed. In addition to H&E staining, Oil red-O staining was conducted in order to observe lipids induced by formation of fatty liver, levels of produced lipids were measured and an effect of drug administration on reduction of lipids was predicted. The liver tissues were stained with an Oil red 0 working solution, to evaluate levels of produced lipids. Blood was collected and centrifuged at 3000 rpm at 4° C. for 10 min. The serum of the upper layer was taken and the levels of triglyceride (TG) and LDL-cholesterol (LDL-C) were measured using an automatic blood biochemical analyzer (AU480, Beckman 30-18 Coulter, USA) and the results were analyzed. A ratio of liver weight to body weight was measured and the amount of triglyceride in liver tissues was measured to expect effects of drug administration on reduction of relative liver weight and triglyceride. The liver tissues were ground with a homogenizer, chloroform and methanol (2:1) were added thereto, the resulting mixture was centrifuged at 3,000 rpm and at 4° C. for 10 minutes and the organic solvent layer containing lipids was separated. The organic solvent in the separated lipid layer was removed in the dryer at 50° C. for 12 hours. The lipid-only tubes were immersed in 100% EtOH, and then suspended in a lipid-free tube and then assayed with a kit reagent for measuring triglyceride (AM157S-K, Asan, Korea).

[4] = compared to the vehicle group, FIG. 6C

CCCc1c(-c2ccccc2)nn(-c2ccccn2)c1O.Cl [compound 1, 3-phenyl-4-n-propyl-1-(pyridin-2-yl)-1H-pyrazol-5-ol hydrochloride]
level of ALT in the blood ([1]; FIG. 1): significantly reduced | inflammation in liver tissues (staining of α-SMA, IL-1β and TNF-α) ([1]; FIG. 2): considerably reduced | liver tissue damage and hepatic fibrosis (TGF-β, H&E staining, Oil red O staining) ([1]; FIG. 3): reduced | relative liver weight ([2]; FIG. 4A): significantly reduced | level of ALP in blood ([2]; FIG. 4B-4D): considerably decreased | level of ALT in blood ([2]; FIG. 4B-4D): considerably decreased | level of AST in blood ([2]; FIG. 4B-4D): considerably decreased | level of LDL in blood ([3]; FIG. 6A and 6B): decreasing levels | level of LDL in liver tissues ([3]; FIG. 6A and 6B): decreasing levels | level of TG in blood ([3]; FIG. 6A and 6B): decreasing levels | level of TG in liver tissues ([3]; FIG. 6A and 6B): decreasing levels | liver tissue damage and hepatic fibrosis (TGF-β and Type IV collagen staining in liver tissues) ([3]; compared to the vehicle group, FIG. 5): significantly reduced | mRNA expression of MCP-1 in liver tissues [3, 4]: considerably reduced | mRNA expression of PAI-1 in liver tissues [3, 4]: considerably reduced | mRNA expression of TGF-β in liver tissues [3, 4]: considerably reduced | mRNA expression of collagen I in liver tissues [3, 4]: considerably reduced | mRNA expression of collagen IV in liver tissues [3, 4]: considerably reduced
